From the NIST ThermoML archive (doi:10.1016/j.jct.2019.03.005)

Conditions: Liquid, Frequency=3 MHz, Pulse-echo method

CC(C)(C)c1ccccc1 [(1,1-dimethylethyl)benzene]
speed of sound [m/s]
Conditions | 298.15 K | 313.15 K | 333.15 K | 353.15 K | 373.15 K | 393.15 K | 413.15 K | 433.15 K
100 kPa | 1316.4 | 1255.3 | 1176.9 | 1101.8 | 1029.9 | 959.3 | 890.9 | 823.7
20100 kPa | 1415.8 | 1360.3 | 1290.1 | 1223.5 | 1161.2 | 1101.1 | 1042.6 | 987.2
40100 kPa | 1501.7 | 1450.3 | 1385.4 | 1324.4 | 1267.7 | 1213.3 | 1161.1 | 1112.1
60100 kPa | 1578.5 | 1529.8 | 1469 | 1411.8 | 1359 | 1308.5 | 1260.2 | 1215.1
80100 kPa | 1647.9 | 1601.7 | 1543.9 | 1489.6 | 1439.6 | 1392 | 1346.6 | 1304.3
100100 kPa | 1711.7 | 1667.3 | 1612.5 | 1560.2 | 1512.4 | 1466.9 | 1423.8 | 1383.6

CC(C)c1ccccc1 [isopropylbenzene]
speed of sound [m/s]
Conditions | 298.15 K | 313.15 K | 333.15 K | 353.15 K | 373.15 K | 393.15 K | 413.15 K | 433.15 K
100 kPa | 1309.1 | 1247.6 | 1168.5 | 1091.8 | 1017.8 | 945.6 | 875 | –
10100 kPa | – | – | – | – | – | – | – | 897.7
20100 kPa | 1406.9 | 1351.3 | 1280.5 | 1213.2 | 1149.2 | 1088.1 | 1029.6 | 974
40100 kPa | 1491.7 | 1440 | 1374.7 | 1313.2 | 1255.1 | 1200.1 | 1147.8 | 1098.9
60100 kPa | 1566.8 | 1518.3 | 1457.2 | 1399.6 | 1345.6 | 1294.7 | 1246.5 | 1201.3
80100 kPa | 1634.8 | 1588.9 | 1530.9 | 1476.5 | 1425.6 | 1377.6 | 1332.1 | 1289.9
100100 kPa | 1697.4 | 1653.3 | 1598 | 1546 | 1497.4 | 1451.6 | 1408.6 | 1368.6
